The supplement of paper PMC10307832

Columns and labels:
Test in all cases: relative viability (nuclei count vs DMSO), 5 days (fraction); higher = more cells survive
Cabozantinib = compound: COc1cc2nccc(Oc3ccc(NC(=O)C4(C(=O)Nc5ccc(F)cc5)CC4)cc3)c2cc1OC [Cabozantinib]
Summary of the method: (§1)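 After an overnight hold at 37 °C, lung cancer cell lines in 1536-well plates were pinned with five library-drug doses (not always all listed), each √10 from the next, on vehicle-anchored plates. The cells stayed 5 days without fresh medium, then a one-step fix, permeabilisation and Hoechst stain preceded 4× imaging and MetaXpress nuclear counts. A plate passed only with control CV under 25% and at least one doubling. Viability is the median, over plates, of treated-well nuclei relative to vehicle-well nuclei.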

Kobe2602 = compound: C1=CC(=CC=C1NC(=S)NNC2=C(C=C(C=C2[N+](=O)[O-])C(F)(F)F)[N+](=O)[O-])F [Kobe2602]
Summary of the method: as §1

Zosuquidar = compound: O[C@@H](COc1cccc2ncccc12)CN1CCN([C@@H]2c3ccccc3[C@@H]3[C@H](c4ccccc42)C3(F)F)CC1 [Zosuquidar]
Summary of the method: as §1

Kobe2602 + Foretinib = compound: C1=CC(=CC=C1NC(=S)NNC2=C(C=C(C=C2[N+](=O)[O-])C(F)(F)F)[N+](=O)[O-])F [Kobe2602] + COc1cc2c(Oc3ccc(NC(=O)C4(C(=O)Nc5ccc(F)cc5)CC4)cc3F)ccnc2cc1OCCCN1CCOCC1 [Foretinib] (partner 0.25 µM)
Summary of the method: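 Lung cancer cell lines in 1536-well plates were dosed by pin tool the day after seeding, either with one drug alone or with a fixed anchor-drug dose plus five library-drug doses (not always all listed) in √10 steps. After 5 days, cells were fixed and their nuclei stained in one step (final 0.05% Triton X-100, 1% formaldehyde, 1 ug/ml Hoechst), then counted on 4× images. Relative viability is the nuclei count in treated wells divided by that in vehicle wells. Values are medians of duplicate plates.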

Cell Line	relative viability (Cabozantinib; 0.02 µM)	relative viability (Cabozantinib; 0.06325 µM)	relative viability (Cabozantinib; 0.2 µM)	relative viability (Cabozantinib; 0.6325 µM)	relative viability (Cabozantinib; 2 µM)	relative viability (Kobe2602; 0.2 µM)	relative viability (Kobe2602; 0.6325 µM)	relative viability (Kobe2602; 2 µM)	relative viability (Kobe2602; 6.325 µM)	relative viability (Kobe2602; 20 µM)	relative viability (Zosuquidar; 0.01 µM)	relative viability (Zosuquidar; 0.03162 µM)	relative viability (Zosuquidar; 0.1 µM)	relative viability (Zosuquidar; 0.3162 µM)	relative viability (Zosuquidar; 1 µM)	relative viability (Kobe2602 + Foretinib; first compound 0.2 µM)	relative viability (Kobe2602 + Foretinib; first compound 0.6325 µM)	relative viability (Kobe2602 + Foretinib; first compound 2 µM)	relative viability (Kobe2602 + Foretinib; first compound 6.325 µM)	relative viability (Kobe2602 + Foretinib; first compound 20 µM)
SW 900	0.807	1.14	0.815	0.959	0.903	0.987	0.861	0.83	0.906	0.975	0.904	0.889	0.705	1.22	0.759	0.979	0.926	0.821	0.854	0.993
NCI-H358	0.936	1.02	0.833	0.981	0.813	0.993	1.03	0.862	0.828	0.97	0.959	0.914	0.871	0.878	0.937	0.721	0.756	0.605	0.698	0.845
PC-3 [JPC-3]	1.03	1.21	–	1.03	1.09	1.07	1.09	1.01	1.01	0.954	1.06	0.992	0.883	0.972	1.01	1.02	1.18	0.994	1.03	1.07
NCI-H1651	0.95	1.07	0.92	0.981	0.968	0.982	1.01	0.981	0.967	1.01	0.985	1.02	0.911	1.02	0.983	0.764	0.89	0.762	0.776	0.868
HCC-827	1.07	1.01	–	1.12	1.06	1.07	1.13	1.06	1	1.02	0.973	0.977	0.981	1.06	0.976	0.999	1.11	1.03	1.04	1.1
HCC-366	1.06	1.02	0.99	0.967	0.995	0.985	0.982	1.02	1.02	1.07	1	1.04	0.977	1.04	0.986	0.945	0.969	0.966	0.919	0.959
HARA	0.916	1.16	0.714	1.04	1.05	0.978	1.13	0.944	1.01	1.03	0.98	0.852	0.944	1.01	0.941	0.996	0.795	0.893	0.856	0.892
NCI-H520	1.05	0.959	0.962	0.953	0.951	1.01	1.09	0.966	0.936	0.957	0.986	1.04	–	1.08	1.05	0.701	0.846	0.738	0.708	0.892
NCI-H1299	1.03	1.08	1.03	1.05	1.08	0.977	1.06	1.02	1.04	0.994	1.02	0.989	1.04	1.01	1	1.06	1.09	1.05	1.13	1.03
SW 1573	0.984	1.05	1.01	0.979	0.819	0.933	1.02	0.915	0.883	0.907	0.925	1	1.03	1.07	0.934	1.02	0.873	0.998	1	1.18
CAL-12T	1.04	1.14	1.01	0.982	1.01	0.965	1.06	0.896	0.997	0.957	1.07	1.16	0.923	1.2	0.932	1.02	1.02	1.09	1.05	1.06
COR-L 105	0.844	0.991	–	0.888	0.857	0.899	1.06	0.858	0.985	0.914	0.955	0.841	0.796	1.04	0.905	0.986	1.02	0.867	1.1	0.979
NCI-H3122	0.995	1.05	1.03	0.983	0.998	1.01	0.971	1.01	0.985	1.04	0.984	0.952	0.919	1.07	0.987	0.969	0.88	0.967	0.925	0.967
NCI-H2228	1.05	1.11	0.938	0.879	0.871	1.02	1.11	1.01	0.944	1.11	0.901	0.979	1.02	0.952	1.03	0.923	0.806	0.734	0.817	0.862
RERF-LC-KJ	1.02	1.1	0.935	0.996	0.994	0.981	0.943	0.959	0.9	0.906	0.943	1.03	1.03	1.04	0.971	0.878	0.952	0.828	0.777	0.763
NCI-H441	0.738	1.23	0.96	0.793	0.879	0.973	1.2	0.917	1.04	1.16	1.14	0.881	0.829	1.06	1.17	0.884	0.901	0.978	1.02	0.914
